Consider 15 compounds from EP0309422A2, “New amidino tricycle derivatives” (ISTITUTO DE ANGELI S.p.A., priority 1987, dated 1989).

By Kd is commonly meant the constant that tells how readily two partners part at equilibrium.

Each structure is given as a SMILES string.

The assay deals with T1, muscarinic receptors of the cerebral cortex (Rattus norvegicus, UniProt P08482).
T1 construct: displacement of ³H-pirenzepine from cerebral cortex homogenate; from tissue; host or cells: rat cerebral cortex homogenate
T1 sequence (P08482 1-460): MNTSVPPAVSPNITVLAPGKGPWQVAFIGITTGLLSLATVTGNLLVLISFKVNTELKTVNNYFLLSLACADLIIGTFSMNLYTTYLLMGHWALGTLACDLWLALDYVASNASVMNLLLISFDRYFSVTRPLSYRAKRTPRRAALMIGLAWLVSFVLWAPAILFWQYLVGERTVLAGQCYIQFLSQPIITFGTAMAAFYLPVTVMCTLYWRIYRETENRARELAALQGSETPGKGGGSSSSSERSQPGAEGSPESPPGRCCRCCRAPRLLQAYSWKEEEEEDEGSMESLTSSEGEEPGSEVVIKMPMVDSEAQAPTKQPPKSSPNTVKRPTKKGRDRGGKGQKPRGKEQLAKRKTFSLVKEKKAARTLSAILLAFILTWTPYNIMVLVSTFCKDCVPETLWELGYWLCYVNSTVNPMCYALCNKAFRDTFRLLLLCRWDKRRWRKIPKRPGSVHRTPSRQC
Briefly: Antimuscarinic activity: in vitro binding, displacement of ³H-pirenzepine from cerebral cortex homogenate. On the set-up: species or system male CD-COOBBS rats. The following applies: competition against 0.5 nM ³H-pirenzepine, 45 min at 30°C, KD from IC50 corrected for radioligand occupancy shift, read-out: Dissociation constants (KD) for ³H-pirenzepine binding. As for the experimental part: Antimuscarinic activity was examined by studying the displacement of ³H-pirenzepine from cerebral cortex homogenate according to the procedure reported below: The cerebral cortex donors were male CD-COOBBS rats, 220-250 g body weight. The homogenization process was carried out in a Potter-Evelhjem apparatus in the presence of Na⁺/Mg⁺⁺ HEPES buffer; pH 7.4 (100 mM NaCl, 10 mM MgCl₂, 20 mM HEPES), by filtering the suspension through two layers of cheesecloth.
Binding curves for the under study compounds were derived indirectly from competition experiments against 0.5 nM ³H-pirenzepine labelling the muscarinic receptors of the cerebral cortex. 1 ml of the homogenate was incubated for 45 min at 30°C in the presence of a marker ligand and different concentrations of the cold ligand, conditions under which equilibrium was reached as determined by appropriate association experiments. The incubation was terminated by centrifugation (12,000 rpm for 3 min) at room temperature using an Eppendorf microcentrifuge. The resultant pellet was washed twice with 1.5 ml saline to remove the free radioactivity and it was allowed to drain for some hours. The tips of the tubes containing the pellet were cut off and 200 µl of tissue solubilizer (Lumasolve, Lumac) were added and left to stand overnight. Radioactivity was then counted after addition of 4 ml of liquid scintillation mixture (Dimilume/Toluene 1:10 v:v, Packard)
Assays were carried out in triplicate or quadruplicate and the non-specific binding was defined as the radioactivity bound or entrapped in the pellet when the incubation medium contained 1 µM atropine sulphate. Non-specific binding avaraged less than 30%. KD values (dissociation constants) were obtained by non-linear regression analysis on the basis of a one binding site model with TOPFIT-pharmacokinetic programme package (G. HEINZEL, "Pharmacokinetics during drug development: data analysis and evaluation techniques" Eds. G. BOLZER and J.M. VAN ROSSUM; p. 207, G. Fisher, New York, 1982) after correction for the radioligand occupancy shift according to the equation: KD = IC₅₀/1 + *C/*KD, where *C and *KD represent the concentration and the dissociation constant of the radioligand used, respectively.
With `N=C(N)N1CCN(CC(=O)N2c3ccccc3NC(=O)c3ccccc32)CC1` [Compound 3, 5,10-dihydro-5-[2-(4-guanyl-piperazin-1-yl)-acetyl]-11H-dibenzo [b,e] [1,4]-diazepin-11-one], the Kd was 6 nM.

On to `N=C(N)N1C2CCC1CC(CC(=O)N1c3ccccc3NC(=O)c3cscc31)C2` (stereo not drawn) [Compound 19, 4,9-dihydro-4-[2-(8-guanyl-8-azabicyclo[3.2.1]-octan-3-yl)-acetyl]-10H-thieno[3,4-b] [1,5]-benzodiazepin-10-one], for which the Kd came out at 4 nM.

On to `N=C(N)N1CCC(CC(=O)N2c3ccccc3NC(=O)c3ccccc32)CC1` [Compound 20, 5,10-dihydro-5-[2-(1-guanyl-piperidin-4-yl)-acetyl]-11H-dibenzo b,e [1,4]-diazepin-11-one], for which the Kd stood at 3.2 nM.

As to `N=C(N)N1CCCC(CC(=O)N2c3ccccc3NC(=O)c3ccccc32)C1` (stereo not drawn) [Compound 26, 5,10-dihydro-5-[2-(1-guanyl-piperidin-3-yl)-acetyl]-11H-dibenzo [b,e] [1,4]-diazepin-11-one], the Kd was 9 nM.

For the compound `N=C(N)N1CCC(OC(=O)C2c3ccccc3NC(=O)c3ccccc32)CC1` (stereo not drawn) [Compound 31, 5,6-dihydro-11-[(1-guanyl-4-piperidinyl)-oxycarbonyl]-11H-dibenz[b,e]-azepin-6-one], the Kd stood at 7.7 nM.

For the compound `CC(=N)N1CCC(CC(=O)N2c3ccccc3NC(=O)c3ccccc32)CC1` [Compound 60, 5,10-dihydro-5-[2-(1-α-iminoethyl-piperidin-h-yl)-acetyl]-11H-dibenzo[b,e] [1,4]-diazepin-11-one], the Kd was 2.7 nM.

`CC(=N)N1CCCC(CC(=O)N2c3ccccc3NC(=O)c3ccccc32)C1` (stereo not drawn) [Compound 61, 5,10-dihydro-5-[2-(1-α-iminoethyl - piperidin-3-yl)-acetyl]-11H-dibenzo[b,e] [1,4]-diazepin-11-one]: the Kd was 5 nM.

Regarding `CC(=N)N1CCCC(C(=O)N2c3ccccc3NC(=O)c3ccccc32)C1` (stereo not drawn) [Compound 62, 5,10-dihydro-5-[(1-α-iminoethyl-piperidin-3-yl)-carbonyl]-11H-dibenzo[b,e] [1,4]-diazepin-11-one], the Kd amounted to 8 nM.

Consider `O=C1Nc2ccccc2N(C(=O)CC2CCN(C3=NCCN3)CC2)c2ccccc21` [Compound 72], for which the Kd came out at 4 nM.

For the compound `CNC(=N)C1CCCN(CC(=O)N2c3ccccc3NC(=O)c3ccccc32)C1` (stereo not drawn) [Compound 78, 5,10-dihydro-5-[2-(3-N-methylguanyl-piperidin-1-yl)-acetyl]-11H-dibenzo[b,e] [1,4]-diazepin-11-one], the Kd worked out at 5 nM.

With `O=C1Nc2ccccc2N(C(=O)CCN2C=NCCC2)c2ccccc21` [Compound 81, 5,10-dihydro-5-[3-(1,4,5,6-tetrahydropirimidin-1-yl)-propionyl]-11H-dibenzo[b,e] [1,4]-diazepin-11-one], the Kd turned out to be 10 nM.

Take `O=C1Nc2cccnc2N(C(=O)CCN2C=NCCC2)c2ccccc21` [Compound 82, 5,11-dihydro-11-[3-(1,4,5,6-tetrahydropirimidin-1-yl)-propionyl]-6H-pyrido[2,3-b] [1,5]-benzodiazepin-6-one]: the Kd was found to be 10 nM.

As to `O=C1Nc2ccccc2N(C(=O)CCN2C=NCCC2)c2cscc21` [Compound 83, 4,9-dihydro-4-[3-(1,4,5,6-tetrahydropirimidin-1-yl)-propionyl]-10H-thieno[3,4-b] [1,5]-benzodiazepin-10-one], the Kd came to 7 nM.

For `CC1=NCCCN1CCC(=O)N1c2ccccc2NC(=O)c2ccccc21` [Compound 84, 5,10-dihydro-5-[3-(2-methyl-1,4,5,6-tetrahydropirimidin-1-yl)-propionyl]-11H-dibenzo[b,e] [1,4]-diazepin-11-one], the dissociation constant (Kd) came to 2.5 nM.

As to `CC1=NCCCN1CCC(=O)N1c2ccccc2C(=O)Nc2cccnc21` [Compound 85, 5,11-dihydro-11-[3-(2-methyl-1,4,5,6-tetrahydropirimidin-1-yl)-propionyl]-6H-pyrido[2,3-b] [1,4]-benzodiazepin-6-one], the Kd stood at 5 nM.
